Like-named read-outs stand apart in the source and are kept apart here.
Columns and labels:
[1] = test system: HIV-1 NL4.3; assay: PM1 cell-based HIV co-culture assay (HeLa CD4 LTR/lacZ indicator cells, β-Gal reporter); details: for EC50: read-out: PM-1 Co-Culture Assay EC50; for EC90: read-out: PM-1 Co-Culture Assay EC90
Excerpt: (§1) The modifications were as follows: PM1 cells were used in place of the MT-2 cells.
as §1

[2] = test system: HIV-1 NL4.3; assay: MT-2 cell-based HIV co-culture assay (HeLa CD4 LTR/lacZ indicator cells, β-Gal reporter); details: for EC50: read-out: MT-2 Co-Culture Assay EC50; for EC90: read-out: MT-2 Co-Culture Assay EC90
Method: HeLa CD4 LTR/lacZ indicator cells were added to 96-well microtiter plates at cell densities of 1×10^4 cells/well in DMEM or RPMI medium (Life Technologies) containing 10% FBS (HyClone). MT-2 cells were infected with HIV-1 NL4.3 using 656, 1312, 2624, or 5248 TCID50s per 1.6×10^4 cells. Two hours after infection, infected MT-2 cells were washed with RPMI medium (Life Technologies) and added to the 96-well microtiter plates containing the HeLa CD4 LTR/lacZ indicator cells. The final MT2-cell densities in the indicator wells were 1.6×10^4 cells/well.
Virus replication was measured 4 days after infection by quantifying HIV-1 Tat induced beta-galactosidase (β-Gal) activity in the HeLa CD4 LTR/lacZ indicator cells using the Dual-Light™ System according to the manufacturer's protocol (Applied Biosystems). Experiments were performed in replicates of 3 or more.
Half-log dilutions of test compounds were added to HeLa CD4 LTR/lacZ indicator cells seeded in 96-well plates at a cell density of 1×10^4 cells per well in DMEM or RPMI (Life Technologies) containing 10% FBS (HyClone). MT-2 cells were infected with HIV-1 NL4.3 virus at an MOI of 0.08. Two hours after infection, infected cells were washed with RPMI, resuspended in RPMI medium, and added to the 96-well plates containing compound-treated or compound free HeLa CD4 LTR/lacZ indicator cells. Virus replication was measured 3 or 4 days after infection by quantifying HIV-1 Tat induced β-Gal activity in the HeLa CD4 LTR/lacZ indicator cells using the Dual-Light™ System according to the manufacturer's protocol (Applied Biosystems).
Data was expressed as the percent of reporter gene activity in infected compound-treated cells relative to that of infected, compound-free cells.

[3] = test system: HIV-1; details: range of EC50 values reported in the literature, NIH anti-HIV therapeutics database, cited from earlier work
[4] = test system: HIV-1 NL4.3; assay: Direct infection of HeLa CD4 LTR/lacZ indicator cells (known reporter cell assay); assay type: cell-based
Excerpt: This Example compared the present HIV co-culture assay with a known reporter cell-based assay method. This known method involved direct infection of HeLa CD4 LTR/lacZ indicator cells with HIV-1 (Kimpton and Emerman, J. Virol., 66(4):2232-2239 (1992)).
HeLa CD4 LTR/lacZ indicator cells were directly infected with TCID50s identical to those used in the co-culture experiments described in Examples 1 and 2. HeLa CD4 LTR/lacZ indicator cells were infected directly with HIV-1 NL4.3 using 656, 1312, 2624, or 5248 TCID50s per 1×10^4 cells.

[5] = Human immunodeficiency virus 1, PM1, 96 h
[6] = Human immunodeficiency virus 1, MT2, 96 h
[7] = Human immunodeficiency virus 1, PM1, 96 h, induced β-Gal activity 4 days after HIV-1 NL4.3 infection, PM-1 cells
[8] = Human immunodeficiency virus 1, MT2, 96 h, induced β-Gal activity 4 days after HIV-1 NL4.3 infection, MT-2 cells, MOI 0.08
[9] = read-out: Literature EC50 (Table 1)
[10] = read-out: Literature EC50 (Table 2)
[11] = Human immunodeficiency virus 1, 96 h, read-out: inhibition of the reporter signal
[12] = induced β-Gal activity 4 days after HIV-1 NL4.3 infection, PM-1 cells
[13] = induced β-Gal activity 4 days after HIV-1 NL4.3 infection, MT-2 cells, MOI 0.08

Compound | EC50 [1, 5] | EC90 [1, 5] | EC50 [2, 6] | EC90 [2, 6] | EC50 [3, 9] | EC50 [3, 10] | further results
Nc1ccn([C@@H]2CS[C@H](CO)O2)c(=O)n1 [3TC, lamivudine] | 180 nM | 1700 nM | 420 nM | 5500 nM | – | – | –
CC(C)(C)C(=O)OCOP(=O)(COCCn1cnc2c(N)ncnc21)OCOC(=O)C(C)(C)C [ADV, adefovir dipivoxil] | – | – | – | – | 40 to 500 nM | 40 to 500 nM | EC50 [1, 7]: 25 nM; EC90 [1, 7]: 150 nM; EC50 [2, 8]: 39 nM; EC90 [2, 8]: 220 nM
O=C(O)C1=CC(=C(c2ccc(O)c(C(=O)O)c2)c2ccc(O)c(C(=O)O)c2)C=CC1=O [ATA, aurintricarboxylic acid] | – | – | 3300 nM | 9900 nM | – | – | –
Cc1cn([C@H]2C[C@H](N=[N+]=[N-])[C@@H](CO)O2)c(=O)[nH]c1=O [AZT, 3′-Azido-3′-deoxythymidine] | 30 nM | 180 nM | 31 nM | 280 nM | 6 to 90 nM | 6 to 90 nM | –
CC(C)c1nc(COC(N)=O)n(Cc2ccncc2)c1Sc1cc(Cl)cc(Cl)c1 [CPV, Capravirine] | – | – | 2.4 nM | 12 nM | – | – | –
CC(C)Nc1cccnc1N1CCN(C(=O)c2cc3cc(NS(C)(=O)=O)ccc3[nH]2)CC1 [DLV, delavirdine] | 5.9 nM | 100 nM | 34 nM | 110 nM | 0.1 to 10 nM | 0.1 to 10 nM | –
O=C1Nc2ccc(Cl)cc2[C@@](C#CC2CC2)(C(F)(F)F)O1 [EFV, efavirenz] | 0.19 nM | 6.2 nM | 1.4 nM | 4.3 nM | – | – | inhibition at 0.1 µM [2, 11]: > 99%; inhibition of the reporter signal ([4]; inhibitor at >10×EC90): > 99%
CC(C)(C)NC(=O)[C@@H]1CN(Cc2cccnc2)CCN1C[C@@H](O)C[C@@H](Cc1ccccc1)C(=O)N[C@H]1c2ccccc2C[C@H]1O [IDV, indinavir] | 12 nM | 47 nM | 26 nM | 55 nM | 1.1 to 60 nM | 1.1 to 60 nM | –
O=C(NCc1ccc(F)cc1)c1nc(N2CCCCS2(=O)=O)c2cccnc2c1O [L-870810] | – | – | – | – | 4 to 8 nM | 4 to 8 nM | EC50 [1, 12]: 0.61 nM; EC90 [1, 12]: 2.4 nM; EC50 [2, 13]: 1.4 nM; EC90 [2, 13]: 5.9 nM
Cc1c(O)cccc1C(=O)N[C@@H](CSc1ccccc1)[C@H](O)CN1C[C@H]2CCCC[C@H]2C[C@H]1C(=O)NC(C)(C)C [NFV, nelfinavir] | 10 nM | 58 nM | 18 nM | 100 nM | 10 to 43 nM | 10 to 43 nM | inhibition of the reporter signal ([1]; PM1 co-culture, inhibitor at ≧10×EC90): 99%; inhibition at 1 µM [2, 11]: ~98%; inhibition of the reporter signal ([4]; inhibitor at 10×EC90): 42%
Cc1ccnc2c1NC(=O)c1cccnc1N2C1CC1 [NVP, Nevirapine] | – | 260 nM | – | – | 24 to 48 nM | 24 to 48 nM | EC50 [1, 7]: 12 nM; EC50 [2, 8]: 46 nM; EC90 [2, 8]: 380 nM
O=C(/C=C(\O)c1nc[nH]n1)c1ccc(Cc2ccc(F)cc2)o1 [S-1360] | – | – | – | – | – | – | EC50 [1, 7]: 91 nM; EC90 [1, 7]: 280 nM; EC50 [2, 8]: 88 nM; EC90 [2, 8]: 1090 nM
CC(C)(C)NC(=O)[C@@H]1C[C@@H]2CCCC[C@@H]2CN1C[C@@H](O)[C@H](Cc1ccccc1)NC(=O)[C@H](CC(N)=O)NC(=O)c1ccc2ccccc2n1 [SQV, saquinavir] | 5.3 nM | 34 nM | 12 nM | 26 nM | 0.2 to 57 nM | 0.2 to 57 nM | –
Cc1cn([C@H]2C=C[C@@H](CO)O2)c(=O)[nH]c1=O [d4T, stavudine] | – | – | 210 nM | 3600 nM | 10 to 8000 nM | – | –
O=c1[nH]cnc2c1ncn2[C@H]1CC[C@@H](CO)O1 [ddl, didanosine] | – | – | 1700 nM | 14000 nM | 460 to 10000 nM | – | –

Reference: US20050014137A1, “Lentivirus assay system including Vif protein activity” (priority 2003, published 2005)
